Measurements reported in US20050009840A1 (SUGEN, INC., priority 2003, published 2005).

target: T1, Met kinase domain (GST fusion protein) (Homo sapiens, UniProt P08581); experiment: Met transphosphorylation assay (ELISA, poly(glu-tyr) substrate); type: biochemical; conditions: Table 2; read-out: Met IC50;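 also: Cell-free ELISA with plate-bound poly(Glu:Tyr 4:1) phosphorylated by GST-fused Met kinase domain plus ATP and Mn2+, phosphotyrosine detected by anti-phosphotyrosine antibody with HRP and ABTS read-out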
T1 construct: Purified GST fusion protein containing the Met kinase domain
T1 sequence (P08581 1078-1345 limits assumed): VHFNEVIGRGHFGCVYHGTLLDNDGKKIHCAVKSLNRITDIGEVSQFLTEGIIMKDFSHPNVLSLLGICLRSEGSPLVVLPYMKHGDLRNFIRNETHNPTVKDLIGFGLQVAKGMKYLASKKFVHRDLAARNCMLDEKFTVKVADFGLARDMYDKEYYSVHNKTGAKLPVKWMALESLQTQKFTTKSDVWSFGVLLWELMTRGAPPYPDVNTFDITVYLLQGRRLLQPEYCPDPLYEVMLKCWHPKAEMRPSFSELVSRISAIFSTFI

In order of rising IC50:
1. CC(Oc1cc(-c2ccc(C(=O)N3CC[C@@H](O)C3)cc2)cnc1N)c1c(Cl)ccc(F)c1Cl (stereo partly drawn) [Example I-307, (4-{6-Amino-5-[1-(2,6-dichloro-3-fluoro-phenyl)-ethoxy]-pyridin-3-yl}-phenyl)-((R)-3-hydroxy-pyrrolidin-1-yl)-methanone]  0.022 µM
2. CC(Oc1cc(-c2ccc(C(=O)N3CC[C@H](O)C3)cc2)cnc1N)c1c(Cl)ccc(F)c1Cl (stereo partly drawn) [Example I-306, (4-{6-Amino-5-[1-(2,6-dichloro-3-fluoro-phenyl)-ethoxy]-pyridin-3-yl}-phenyl)-((S)-3-hydroxy-pyrrolidin-1-yl)-methanone]  0.024 µM
3. CC(Oc1cc(-c2ccc(C(=O)N3CCC[C@@H]3CO)cc2)cnc1N)c1c(Cl)ccc(F)c1Cl (stereo partly drawn) [Example I-308, (4-{6-Amino-5-[1-(2,6-dichloro-3-fluoro-phenyl)-ethoxy]-pyridin-3-yl}-phenyl)-((R)-2-hydroxymethyl-pyrrolidin-1-yl)-methanone]  0.033 µM
4. CCN(CC)CCNC(=O)c1ccc(-c2cnc(N)c(OC(C)c3c(Cl)ccc(F)c3Cl)c2)cc1 (stereo not drawn) [Example I-309, 4-{6-Amino-5-[1-(2,6-dichloro-3-fluoro-phenyl)-ethoxy]-pyridin-3-yl}-N-(2-diethylamino-ethyl)-benzamide]  0.04 µM
5. CC(Oc1cc(-c2cccc(C(=O)N3CC[C@H](N)C3)c2)cnc1N)c1c(Cl)ccc(F)c1Cl (stereo partly drawn) [Example I-316, (3-{6-Amino-5-[1-(2,6-dichloro-3-fluoro-phenyl)-ethoxy]-pyridin-3-yl}-phenyl)-((S)-3-amino-pyrrolidin-1-yl)-methanone]  0.048 µM
6. CC(Oc1cc(-c2cccc(C(=O)N3CCC[C@H]3CN3CCCC3)c2)cnc1N)c1c(Cl)ccc(F)c1Cl (stereo partly drawn) [Example I-314, (3-{6-Amino-5-[1-(2,6-dichloro-3-fluoro-phenyl)-ethoxy]-pyridin-3-yl}-phenyl)-((S)-2-pyrrolidin-1-ylmethyl-pyrrolidin-1-yl)-methanone]  0.06 µM
7. CC(Oc1cc(-c2cccc(C(=O)N3CCN(C)CC3)c2)cnc1N)c1c(Cl)ccc(F)c1Cl (stereo not drawn) [Example I-312]  0.062 µM
8. CC(Oc1cc(-c2cccc(C(=O)NC3CCN(C)CC3)c2)cnc1N)c1c(Cl)ccc(F)c1Cl (stereo not drawn) [Example I-313, 3-{6-Amino-5-[1-(2,6-dichloro-3-fluoro-phenyl)-ethoxy]-pyridin-3-yl}-N-(1-methyl-piperidin-4-yl) benzamide]  0.069 µM
9. CC(=O)N1CCN(CCNC(=O)c2cccc(-c3cnc(N)c(OC(C)c4c(Cl)ccc(F)c4Cl)c3)c2)CC1 (stereo not drawn) [Example I-315, N-[2-(4-Acetyl-piperazin-1-yl)-ethyl]-3-{6-amino-5-[1-(2,6-dichloro-3-fluoro-phenyl)-ethoxy]-pyridin-3-yl}-benzamide]  0.069 µM
10. CC(Oc1cc(-c2ccc(C(=O)NCCN3CCOCC3)cc2)cnc1N)c1c(Cl)ccc(F)c1Cl (stereo not drawn) [Example I-302, 4-{6-Amino-5-[1-(2,6-dichloro-3-fluoro-phenyl)-ethoxy]-pyridin-3-yl}-N-(2-morpholin-4-yl-ethyl)-benzamide]  0.071 µM
11. CC(Oc1cc(-c2cccc(C(=O)N3CCC(N4CCCC4)CC3)c2)cnc1N)c1c(Cl)ccc(F)c1Cl (stereo not drawn) [Example I-322, (3-{6-Amino-5-[1-(2,6-dichloro-3-fluoro-phenyl)-ethoxy]-pyridin-3-yl}-phenyl)-(4-pyrrolidin-1-yl-piperidin-1-yl)-methanone]  0.071 µM
12. CC(Oc1cc(-c2ccc(C(=O)N3CC[C@@H](N)C3)cc2)cnc1N)c1c(Cl)ccc(F)c1Cl (stereo partly drawn) [Example I-304, (4-{6-Amino-5-[1-(2,6-dichloro-3-fluoro-phenyl)-ethoxy]-pyridin-3-yl}-phenyl)-((R)-3-amino-pyrrolidin-1-yl)-methanone]  0.072 µM
13. CC(Oc1cc(-c2ccc(NS(=O)(=O)CCNCC3CC3)cc2)cnc1N)c1c(Cl)ccc(F)c1Cl (stereo not drawn) [Example I-326, 2-(Cyclopropylmethyl-amino)-ethanesulfonic acid (4-{6-amino-5-[1-(2,6-dichloro-3-fluoro-phenyl)-ethoxy]-pyridin-3-yl}-phenyl)-amide]  0.075 µM
14. CCN(CC)CCS(=O)(=O)Nc1ccc(-c2cnc(N)c(OC(C)c3c(Cl)ccc(F)c3Cl)c2)cc1 (stereo not drawn) [Example I-323, 2-Diethylamino-ethanesulfonic acid (4-{6-amino-5-[1-(2,6-dichloro-3-fluoro-phenyl)-ethoxy]-pyridin-3-yl}-phenyl)-amide]  0.08 µM
15. CC(Oc1cc(-c2ccc(NS(=O)(=O)CCN3CCCCC3)cc2)cnc1N)c1c(Cl)ccc(F)c1Cl (stereo not drawn) [Example I-325]  0.089 µM
16. CC(Oc1cc(-c2ccc(NS(=O)(=O)CCN3CC[C@@H](O)C3)cc2)cnc1N)c1c(F)ccc(F)c1Cl (stereo partly drawn) [Example I-327]  0.093 µM
17. CCN(CC)CCS(=O)(=O)Nc1ccc(-c2cnc(N)c(OC(C)c3c(F)ccc(F)c3Cl)c2)cc1 (stereo not drawn) [Example I-329, 2-Diethylamino-ethanesulfonic acid (4-{6-amino-5-[1-(2-chloro-3,6-difluoro-phenyl)-ethoxy]-pyridin-3-yl}-phenyl)-amide]  0.095 µM
18. CC(Oc1cc(-c2cccc(C(=O)NCCN3CCCC3)c2)cnc1N)c1c(Cl)ccc(F)c1Cl (stereo not drawn) [Example I-319, 3-{6-Amino-5-[1-(2,6-dichloro-3-fluoro-phenyl)-ethoxy]-pyridin-3-yl}-N-(2-pyrrolidin-1-yl-ethyl)-benzamide]  0.1 µM
19. CC(Oc1cc(-c2cccc(C(=O)N3CCC[C@@H]3CN3CCCC3)c2)cnc1N)c1c(Cl)ccc(F)c1Cl (stereo partly drawn) [Example I-318, (3-{6-Amino-5-[1-(2,6-dichloro-3-fluoro-phenyl)-ethoxy]-pyridin-3-yl}-phenyl)-((R)-2-pyrrolidin-1-ylmethyl-pyrrolidin-1-yl)-methanone]  0.13 µM
20. CC(Oc1cc(-c2cccc(C(=O)NCCCN3CCCC3)c2)cnc1N)c1c(Cl)ccc(F)c1Cl (stereo not drawn) [Example I-320, 3-{6-Amino-5-[1-(2,6-dichloro-3-fluoro-phenyl)-ethoxy]-pyridin-3-yl}-N-(3-pyrrolidin-1-yl-propyl)-benzamide]  0.13 µM
21. CC(Oc1cc(-c2ccc(C(=O)NCCN3CCOCC3)cc2)cnc1N)c1c(F)ccc(F)c1Cl (stereo not drawn) [Example I-331, 4-{6-Amino-5-[1-(2-chloro-3,6-difluoro-phenyl)-ethoxy]-pyridin-3-yl}-N-(2-morpholin-4-yl-ethyl)-benzamide]  0.13 µM
22. CC(Oc1cc(-c2ccc(NS(=O)(=O)CCNC3CC3)cc2)cnc1N)c1c(F)ccc(F)c1Cl (stereo not drawn) [Example I-328, 2-Cyclopropylamino-ethanesulfonic acid (4-{6-amino-5-[1-(2-chloro-3,6-difluoro-phenyl)-ethoxy]-pyridin-3-yl}-phenyl)-amide]  0.16 µM
23. CC(Oc1cc(-c2ccc(C(=O)N3CCC(N)CC3)cc2)cnc1N)c1c(Cl)ccc(F)c1Cl (stereo not drawn) [Example I-305, (4-{6-Amino-5-[1-(2,6-dichloro-3-fluoro-phenyl)-ethoxy]-pyridin-3-yl}-phenyl)-(4-amino-piperidin-1-yl)-methanone]  0.18 µM
24. CC(Oc1cc(-c2cccc(C(=O)NCCN3CCOCC3)c2)cnc1N)c1c(Cl)ccc(F)c1Cl (stereo not drawn) [Example I-321, 3-{6-Amino-5-[1-(2,6-dichloro-3-fluoro-phenyl)-ethoxy]-pyridin-3-yl}-N-(2-morpholin-4-yl-ethyl)-benzamide]  0.18 µM
